Laboratory results from ChEMBL document CHEMBL3885881, “DrugMatrix”.

Organism: Rattus norvegicus
Experiment: DrugMatrix - Regimen: Daily Repeat
Type: toxicity, organism-based, Sprague-Dawley
Parameters: regimen Daily Repeat, gender Male, age 6-8 weeks
Settings: in vivo, po, route oral GAVAGE, vehicle .5 % CMC; for ABSOLUTE BASOPHIL / ABSOLUTE EOSINOPHIL / ABSOLUTE LYMPHOCYTE / ABSOLUTE MONOCYTE / ABSOLUTE SEGMENTED NEUTROPHIL / BASOPHIL / EOSINOPHIL / ERYTHROCYTE COUNT / HEMATOCRIT / HEMOGLOBIN / LEUKOCYTE COUNT / LYMPHOCYTE / MEAN CORPUSCULAR HEMOGLOBIN / MEAN CORPUSCULAR HEMOGLOBIN CONCENTRATION / MEAN CORPUSCULAR VOLUME / MONOCYTE / NEUTROPHIL / NUCLEATED RED BLOOD CELLS / PLATELET COUNT: tissue Blood; for ALANINE AMINOTRANSFERASE / ALBUMIN / ALKALINE PHOSPHATASE / ASPARTATE AMINOTRANSFERASE / BLOOD UREA NITROGEN / CARBON DIOXIDE / CHLORIDE / CHOLESTEROL / CREATINE PHOSPHOKINASE / CREATININE / GLUCOSE / LACTATE DEHYDROGENASE / LIPASE / PHOSPHORUS / POTASSIUM / SODIUM / TOTAL BILIRUBIN / TOTAL PROTEIN / URIC ACID: tissue Plasma
[1] = 30 mg/kg, 120 h, dose level Low, time 5 day
[2] = 2000 mg/kg, 72 h, dose level High, time 3 day
[3] = 2000 mg/kg, 120 h, dose level High, time 5 day

Q: What does the source list for `CCOc1cc(N)c(Cl)cc1C(=O)NCC1CN(Cc2ccc(F)cc2)CCO1` (centres undefined) [MOSAPRIDE]?
A: ABSOLUTE BASOPHIL [1]: 0 CELLS/uL; ABSOLUTE EOSINOPHIL [1]: 184 CELLS/uL; ABSOLUTE LYMPHOCYTE [1]: 14085.33 CELLS/uL; ABSOLUTE MONOCYTE [1]: 124 CELLS/uL; ABSOLUTE SEGMENTED NEUTROPHIL [1]: 940 CELLS/uL; BASOPHIL [1]: 0%; EOSINOPHIL [1]: 1.33%; ERYTHROCYTE COUNT [1]: 5.58 x10E6/uL; HEMATOCRIT [1]: 33.97%; HEMOGLOBIN [1]: 13.4 G/DL; LEUKOCYTE COUNT [1]: 15.33 x10E3/uL; LYMPHOCYTE [1]: 91.33%; MEAN CORPUSCULAR HEMOGLOBIN [1]: 24.07 pg; MEAN CORPUSCULAR HEMOGLOBIN CONCENTRATION [1]: 39.43 G/DL; MEAN CORPUSCULAR VOLUME [1]: 61 fL; MONOCYTE [1]: 1%; NEUTROPHIL [1]: 6.33%; NUCLEATED RED BLOOD CELLS [1]: 0 /100WBC; PLATELET COUNT [1]: 1230 x10E3/uL; ALANINE AMINOTRANSFERASE [1]: 47 u/L; ALBUMIN [1]: 4.27 G/DL; ALKALINE PHOSPHATASE [1]: 395.67 u/L; ASPARTATE AMINOTRANSFERASE [1]: 103 u/L; BLOOD UREA NITROGEN [1]: 14.67 mg/dL; CARBON DIOXIDE [1]: 21.33 mmol/L; CHLORIDE [1]: 104.33 MEQ/L; CHOLESTEROL [1]: 72.33 mg/dL; CREATINE PHOSPHOKINASE [1]: 763 u/L; CREATININE [1]: 0.22 mg/dL; GLUCOSE [1]: 150.33 mg/dL; LACTATE DEHYDROGENASE [1]: 650.33 u/L; LIPASE [1]: 9.67 u/L; PHOSPHORUS [1]: 11.1 mg/dL; POTASSIUM [1]: 5.84 MEQ/L; SODIUM [1]: 144.4 MEQ/L; TOTAL BILIRUBIN [1]: 0.23 mg/dL; TOTAL PROTEIN [1]: 5.97 G/DL; URIC ACID [1]: 1.73 mg/dL; ABSOLUTE BASOPHIL [2]: 0 CELLS/uL; ABSOLUTE EOSINOPHIL [2]: 82 CELLS/uL; ABSOLUTE LYMPHOCYTE [2]: 11383.33 CELLS/uL; ABSOLUTE MONOCYTE [2]: 248.67 CELLS/uL; ABSOLUTE SEGMENTED NEUTROPHIL [2]: 719.33 CELLS/uL; BASOPHIL [2]: 0%; EOSINOPHIL [2]: 0.67%; ERYTHROCYTE COUNT [2]: 6.66 x10E6/uL; HEMATOCRIT [2]: 42.47%; HEMOGLOBIN [2]: 16.67 G/DL; LEUKOCYTE COUNT [2]: 12.43 x10E3/uL; LYMPHOCYTE [2]: 91.33%; MEAN CORPUSCULAR HEMOGLOBIN [2]: 25.07 pg; MEAN CORPUSCULAR HEMOGLOBIN CONCENTRATION [2]: 39.27 G/DL; MEAN CORPUSCULAR VOLUME [2]: 63.83 fL; MONOCYTE [2]: 2%; NEUTROPHIL [2]: 6%; NUCLEATED RED BLOOD CELLS [2]: 0 /100WBC; PLATELET COUNT [2]: 1265 x10E3/uL; ALANINE AMINOTRANSFERASE [2]: 92.67 u/L; ALBUMIN [2]: 4.43 G/DL; ALKALINE PHOSPHATASE [2]: 485 u/L; ASPARTATE AMINOTRANSFERASE [2]: 204 u/L; BLOOD UREA NITROGEN [2]: 18 mg/dL; CARBON DIOXIDE [2]: 19 mmol/L; CHLORIDE [2]: 95 MEQ/L; CHOLESTEROL [2]: 234.67 mg/dL; CREATINE PHOSPHOKINASE [2]: 2551 u/L; CREATININE [2]: 0.29 mg/dL; GLUCOSE [2]: 119.67 mg/dL; LACTATE DEHYDROGENASE [2]: 1110.67 u/L; LIPASE [2]: 14.67 u/L; PHOSPHORUS [2]: 14.47 mg/dL; POTASSIUM [2]: 7.66 MEQ/L; SODIUM [2]: 141.13 MEQ/L; TOTAL BILIRUBIN [2]: 0.47 mg/dL; TOTAL PROTEIN [2]: 6.5 G/DL; URIC ACID [2]: 2.7 mg/dL; ABSOLUTE BASOPHIL [3]: 0 CELLS/uL; ABSOLUTE EOSINOPHIL [3]: 63.33 CELLS/uL; ABSOLUTE LYMPHOCYTE [3]: 17542.67 CELLS/uL; ABSOLUTE MONOCYTE [3]: 192.67 CELLS/uL; ABSOLUTE SEGMENTED NEUTROPHIL [3]: 1468 CELLS/uL; BASOPHIL [3]: 0%; EOSINOPHIL [3]: 0.33%; ERYTHROCYTE COUNT [3]: 6.35 x10E6/uL; HEMATOCRIT [3]: 38.03%; HEMOGLOBIN [3]: 14.87 G/DL; LEUKOCYTE COUNT [3]: 19.27 x10E3/uL; LYMPHOCYTE [3]: 91%; MEAN CORPUSCULAR HEMOGLOBIN [3]: 23.37 pg; MEAN CORPUSCULAR HEMOGLOBIN CONCENTRATION [3]: 39.1 G/DL; MEAN CORPUSCULAR VOLUME [3]: 59.8 fL; MONOCYTE [3]: 1%; NEUTROPHIL [3]: 7.67%; NUCLEATED RED BLOOD CELLS [3]: 0 /100WBC; PLATELET COUNT [3]: 1370.33 x10E3/uL; ALANINE AMINOTRANSFERASE [3]: 101.67 u/L; ALBUMIN [3]: 4.07 G/DL; ALKALINE PHOSPHATASE [3]: 465 u/L; ASPARTATE AMINOTRANSFERASE [3]: 89.67 u/L; BLOOD UREA NITROGEN [3]: 18.33 mg/dL; CARBON DIOXIDE [3]: 25.67 mmol/L; CHLORIDE [3]: 100 MEQ/L; CHOLESTEROL [3]: 227.67 mg/dL; CREATINE PHOSPHOKINASE [3]: 489.33 u/L; CREATININE [3]: 0.22 mg/dL; GLUCOSE [3]: 124.33 mg/dL; LACTATE DEHYDROGENASE [3]: 134 u/L; LIPASE [3]: 12.67 u/L; PHOSPHORUS [3]: 12.77 mg/dL; POTASSIUM [3]: 6.56 MEQ/L; SODIUM [3]: 145.37 MEQ/L; TOTAL BILIRUBIN [3]: 0.2 mg/dL; TOTAL PROTEIN [3]: 6.2 G/DL; URIC ACID [3]: 1.77 mg/dL
